Test results: ChEMBL document CHEMBL1151820, “Antagonists of the P2X(7) receptor. From lead identification to drug development” (J Med Chem, 2009)
Values belong to the molecule of their own block, whether it stands above or below them.

Columns and labels:
P2X purinoceptor 7 [1] = molecular target: T1, P2X purinoceptor 7 (Homo sapiens, UniProt Q99572); experiment: Antagonist activity at human P2X7 receptor expressed in HEK293 cells assessed as inhibition of BzATP-induced calcium influx; format: functional, cell-based
T1 sequence (Q99572 whole entry): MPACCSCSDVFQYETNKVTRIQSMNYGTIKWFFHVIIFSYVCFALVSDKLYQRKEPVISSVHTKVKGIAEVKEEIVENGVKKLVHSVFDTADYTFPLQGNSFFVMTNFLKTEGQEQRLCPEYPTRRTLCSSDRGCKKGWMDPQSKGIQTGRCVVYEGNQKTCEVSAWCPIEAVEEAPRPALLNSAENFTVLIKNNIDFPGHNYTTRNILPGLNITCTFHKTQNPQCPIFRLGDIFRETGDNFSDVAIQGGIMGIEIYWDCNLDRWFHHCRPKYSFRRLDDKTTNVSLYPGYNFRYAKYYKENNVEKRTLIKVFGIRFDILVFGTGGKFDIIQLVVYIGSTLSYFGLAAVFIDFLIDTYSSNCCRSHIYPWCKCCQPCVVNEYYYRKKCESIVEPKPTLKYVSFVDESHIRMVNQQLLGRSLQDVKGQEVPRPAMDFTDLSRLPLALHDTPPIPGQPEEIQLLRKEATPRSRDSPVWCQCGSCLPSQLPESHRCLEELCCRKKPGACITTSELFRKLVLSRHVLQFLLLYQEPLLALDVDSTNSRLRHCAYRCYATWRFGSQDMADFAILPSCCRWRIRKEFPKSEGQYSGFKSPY

P2X purinoceptor 7 [2] = molecular target: T1, P2X purinoceptor 7; experiment: Antagonist activity at P2X7 receptor in human THP1 cells assessed as inhibition of BzATP-induced ethidium uptake; format: functional, cell-based, THP-1
P2X purinoceptor 7 [3] = molecular target: T2, P2X purinoceptor 7 (Rattus norvegicus, UniProt Q64663); experiment: Activity at rat P2X7 receptor expressed in HEK cells assessed as effect on BzATP-induced ethidium uptake; format: cell-based, HEK293
T2 sequence (Q64663 whole entry): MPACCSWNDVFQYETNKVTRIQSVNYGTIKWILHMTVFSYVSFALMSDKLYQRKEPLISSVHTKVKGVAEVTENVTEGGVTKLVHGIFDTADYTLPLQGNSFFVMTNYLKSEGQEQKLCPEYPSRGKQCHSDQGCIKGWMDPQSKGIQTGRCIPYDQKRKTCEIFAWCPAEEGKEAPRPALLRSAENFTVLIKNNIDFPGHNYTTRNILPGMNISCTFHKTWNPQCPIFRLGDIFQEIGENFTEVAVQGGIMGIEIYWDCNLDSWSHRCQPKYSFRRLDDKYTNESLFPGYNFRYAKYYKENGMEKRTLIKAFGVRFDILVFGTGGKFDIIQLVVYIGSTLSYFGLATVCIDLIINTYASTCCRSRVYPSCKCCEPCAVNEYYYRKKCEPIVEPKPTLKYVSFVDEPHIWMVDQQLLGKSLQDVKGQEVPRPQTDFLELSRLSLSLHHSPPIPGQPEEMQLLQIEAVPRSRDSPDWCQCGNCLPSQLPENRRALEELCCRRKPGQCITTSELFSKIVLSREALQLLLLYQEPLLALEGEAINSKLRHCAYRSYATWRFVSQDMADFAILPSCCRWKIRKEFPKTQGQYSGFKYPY

[4] = molecular target: T3, P2X purinoceptor 7 (Homo sapiens) (UniProt Q99572); experiment: Inhibition of human P2X7 receptor in human PBMC assessed as inhibition of BzATP-induced IL1-beta release at 0.03 uM
T3 sequence (whole entry): T1 sequence (Q99572 whole entry)

P2X purinoceptor 7 [5] = molecular target: T1, P2X purinoceptor 7; experiment: Antagonist activity at P2X7 receptor in human THP1 cells assessed as effect on BzATP-induced Yo-Pro uptake; format: functional, cell-based, THP-1
Mus musculus = experiment: In vivo receptor activity at P2X7 receptor in mouse model assessed as ATP-induced IL1-beta release; format: functional
Rattus norvegicus = experiment: Antinociceptive activity in ip dosed rat Chung model of neuropathic pain; format: functional
P2X purinoceptor 7 [6] = molecular target: T1, P2X purinoceptor 7; experiment: Antagonist activity at human P2X7 receptor expressed in human U373 cells assessed as inhibition of BzATP-induced Yo-Pro uptake; format: functional, cell-based, U-373MG ATCC
[7] = Volume of distribution at steady state in iv dosed rat; format: ADME, organism-based; details: in vivo, read-out: Vdss
[8] = Plasma clearance in iv dosed rat; format: ADME, organism-based
[9] = Half life in iv dosed rat; format: ADME, organism-based; details: in vivo
[10] = Oral bioavailability in rat; format: ADME, organism-based; details: in vivo
P2X purinoceptor 7 [11] = molecular target: T1, P2X purinoceptor 7; experiment: Antagonist activity at P2X7 receptor in human lymphocytes assessed as inhibition of ATP-induced Ba2+ influx; format: functional, cell-based
[12] = molecular target: T3, P2X purinoceptor 7 (Homo sapiens); details: HEK293, at 3 µM

- IC50 (P2X purinoceptor 7 [1]): 20 nM
SMILES: CN([C@@H](Cc1ccc(OS(=O)(=O)c2cccc3cnccc23)cc1)C(=O)N1CCN(Cc2ccccc2)CC1)S(=O)(=O)c1cccc2cnccc12

- inhibition [4]: 50%
SMILES: O=C(NCC12CC3CC(CC(C3)C1)C2)c1ncnc2c1CCN(Cc1ccccc1)C2

- IC50 (P2X purinoceptor 7 [1]): 63.1 nM
SMILES: CN([C@@H](Cc1ccc(OS(=O)(=O)c2cccc3cnccc23)cc1)C(=O)N1CCC(Cc2ccccc2)CC1)S(=O)(=O)c1cccc2cnccc12

- IC50 (P2X purinoceptor 7 [1]): 631 nM
SMILES: CN([C@@H](Cc1ccc(OS(=O)(=O)c2cccc3cnccc23)cc1)C(=O)N1CCN(CCc2ccccc2)CC1)S(=O)(=O)c1cccc2cnccc12

- IC50 (P2X purinoceptor 7 [2]): 79.4 nM
- IC50 (P2X purinoceptor 7 [3]): 200 nM
SMILES: Cc1ccccc1Cn1cnnc1-c1cccc(Cl)c1Cl
- Efficacy (Rattus norvegicus): 68%

- IC50 (P2X purinoceptor 7 [6]): 63.1 nM
SMILES: Clc1ccccc1CCC1=N[C@@H](c2ccccc2)[C@@H](c2ccccc2)N1

- IC50 (P2X purinoceptor 7 [6]): 200 nM
SMILES: Fc1cccc(CSC2=N[C@@H](c3ccccc3)[C@@H](c3ccccc3)N2)c1

- IC50 (P2X purinoceptor 7 [2]): 20 nM
- IC50 (P2X purinoceptor 7 [3]): 251 nM
SMILES: Cc1ccccc1Nc1ncnn1-c1cccc(Cl)c1Cl

- IC50 (P2X purinoceptor 7 [6]): 63.1 nM
SMILES: Cc1ccccc1CCC1=N[C@H](c2ccccc2)[C@H](c2ccccc2)N1

- IC50 (P2X purinoceptor 7 [11]): 12.6 nM
- IC50 (P2X purinoceptor 7 [1]): 50.1 nM
- inhibition [12]: 85%
SMILES: CN([C@@H](Cc1ccc(OS(=O)(=O)c2cccc3cnccc23)cc1)C(=O)N1CCN(c2ccccc2)CC1)S(=O)(=O)c1cccc2cnccc12

- IC50 (P2X purinoceptor 7 [6]): 31.6 nM
SMILES: c1ccc([C@H]2N=C(C3Cc4ccccc4C3)N[C@H]2c2ccccc2)cc1

- IC50 (P2X purinoceptor 7 [6]): 631 nM
SMILES: c1ccc(CCCCC2=N[C@H](c3ccccc3)[C@H](c3ccccc3)N2)cc1

- IC50 (P2X purinoceptor 7 [6]): > 3160 nM
SMILES: COc1ccc(CCC2=N[C@H](c3ccccc3)[C@H](c3ccccc3)N2)cc1

The next lines start with the molecule.

SMILES: O=C(CNS(=O)(=O)c1cccc2cnccc12)N1CCN(c2ccccc2F)CC1
- IC50 (P2X purinoceptor 7 [1]): 12.6 nM

SMILES: O=C(NNc1cccc2ncccc12)C12CC3CC(CC(C3)C1)C2
- IC50 (P2X purinoceptor 7 [2]): 10 nM
- IC50 (P2X purinoceptor 7 [3]): 39.8 nM

SMILES: O=C(NCC1(O)CCCCCC1)c1cc(-c2cc[nH]n2)ccc1Cl
- IC50 (P2X purinoceptor 7 [5]): 200 nM

SMILES: O=C(CNS(=O)(=O)c1cccc2cnccc12)N1CCN(c2ccc(F)cc2)CC1
- IC50 (P2X purinoceptor 7 [1]): 63.1 nM

SMILES: Cc1cc(-c2ccc(Cl)c(C(=O)NCC3(O)CCCCCC3)c2)nn1CC(=O)NCCN(C)C
- IC50 (P2X purinoceptor 7 [5]): 3.16 nM

SMILES: O=C(CNS(=O)(=O)c1cccc2cnccc12)N1CCN(c2ccc([N+](=O)[O-])cc2)CC1
- IC50 (P2X purinoceptor 7 [1]): 20 nM

SMILES: O=C(NCC1(O)CCCCCC1)c1cc(-n2ncc(=O)[nH]c2=O)ccc1Cl
- ED50 (Mus musculus): 2 mg/kg
- IC50 (P2X purinoceptor 7 [2]): 100 nM

SMILES: O=C([C@H](Cc1ccc(OS(=O)(=O)c2cccc3cnccc23)cc1)NS(=O)(=O)c1cccc2cnccc12)N1CCN(c2ccc(F)cc2)CC1
- IC50 (P2X purinoceptor 7 [1]): 6.31 nM

SMILES: Cc1ccc(-c2ccc(Cl)c(C(=O)NCC3(O)CCCC(C)(C)C3)c2)nc1 (configuration not stated)
- IC50 (P2X purinoceptor 7 [5]): 10 nM

SMILES: Cc1ccc2c(N/C(=N\C#N)N3CCN(C(=O)c4ccc(Cl)cc4)CC3C(C)C)cccc2n1 (configuration not stated)
- Vd [7]: 11.8 L/kg
- clearance [8]: 23 mL/min/kg
- half-life [9]: 4.4 h
- bioavailability [10]: 5%

SMILES: C=C1C2(C(=O)NNc3ccccc3)CCC(C2)C1(C)C (configuration not stated)
- IC50 (P2X purinoceptor 7 [2]): 50.1 nM
- IC50 (P2X purinoceptor 7 [3]): 50.1 nM

SMILES: Clc1cccc(-n2cnnc2NCc2cccnc2N2CCCC2)c1Cl
- IC50 (P2X purinoceptor 7 [2]): 15.8 nM
- IC50 (P2X purinoceptor 7 [3]): 12.6 nM
